# Assay results: patent US20210253557A1, “SUBSTITUTED TRIAZOLE DERIVATIVES AND USES THEREOF” (Bayer Pharma Aktiengesellschaft, priority 2017, published 2021)
# Structures can show the parent of a compound that is named as a salt.
# Legend:
# human V2 receptor = target: T1, human V2 receptor (Homo sapiens, UniProt P30518); assay: Cellular in vitro assay for determining vasopressin receptor activity (V2, CRE-luciferase); assay type: cell-based; conditions: CHO cell line transfected with the human V2 receptor; [Arg8]-vasopressin at EC50 concentration; read-out: IC50 hV2
# T1 construct: expressed in transfected cells; host or cells: CHO K1 (ATCC) expressing firefly luciferase under a CRE-responsive promoter
# T1 sequence (P30518 whole entry): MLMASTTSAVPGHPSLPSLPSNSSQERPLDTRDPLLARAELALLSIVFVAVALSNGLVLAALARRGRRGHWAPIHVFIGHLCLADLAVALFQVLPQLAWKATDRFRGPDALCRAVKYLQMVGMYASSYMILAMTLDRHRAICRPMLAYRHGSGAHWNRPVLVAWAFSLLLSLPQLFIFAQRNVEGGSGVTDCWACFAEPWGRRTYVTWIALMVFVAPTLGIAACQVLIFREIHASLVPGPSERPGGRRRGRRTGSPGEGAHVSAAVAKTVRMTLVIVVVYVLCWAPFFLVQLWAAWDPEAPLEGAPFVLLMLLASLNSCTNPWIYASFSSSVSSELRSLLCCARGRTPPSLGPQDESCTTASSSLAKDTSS
# Outline: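 Antagonism was measured as inhibition of a 3-h, EC50-level [Arg8]-vasopressin stimulation, with compounds tested at several concentrations, yielding IC50 values. The read-out was cAMP-driven CRE-luciferase luminescence after lysis, in recombinant CHO K1 cells carrying human V2 receptor. Cells were seeded in 2% FCS DMEM/F12 one day earlier.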
# human V1a receptor = target: T2, human V1a receptor (Homo sapiens, UniProt P37288); assay: Cellular in vitro assay for determining vasopressin receptor activity (V1a, aequorin luminescence); assay type: cell-based; conditions: for IC50: CHO cell line transfected with the human V1a receptor, [Arg8]-vasopressin at EC50 concentration, read-out: IC50 hV1a; for ratio IC50 hV2/hV1a: selectivity ratio of IC50 hV2 to IC50 hV1a
# T2 construct: expressed in transfected cells; host or cells: CHO K1 (ATCC), also stably transfected with a modified aequorin
# T2 sequence (P37288 whole entry): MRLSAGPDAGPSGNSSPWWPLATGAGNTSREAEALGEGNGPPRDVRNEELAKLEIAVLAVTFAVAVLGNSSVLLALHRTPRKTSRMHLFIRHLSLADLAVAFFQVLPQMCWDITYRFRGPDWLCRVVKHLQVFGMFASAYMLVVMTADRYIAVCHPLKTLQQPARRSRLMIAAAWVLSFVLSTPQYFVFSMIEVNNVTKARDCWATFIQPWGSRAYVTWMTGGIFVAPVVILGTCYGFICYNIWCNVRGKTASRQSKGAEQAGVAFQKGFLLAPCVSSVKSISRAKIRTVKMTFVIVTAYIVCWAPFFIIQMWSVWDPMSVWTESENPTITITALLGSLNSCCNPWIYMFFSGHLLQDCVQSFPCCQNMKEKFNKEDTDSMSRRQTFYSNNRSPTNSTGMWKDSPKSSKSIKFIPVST
IC50 (human V2 receptor) [nM],IC50 (human V1a receptor) [nM],ratio IC50 hV2/hV1a (human V1a receptor),SMILES
1.28,13.1,0.1,"C[C@H](N)c1nc(Cn2nc(-c3ccc(Cl)cc3)n(C[C@H](O)C(F)(F)F)c2=O)nn1-c1cccc(Cl)c1 [Example 57, 2-({5-[(1S)-1-Aminoethyl]-1-(3-chlorophenyl)-1H-1,2,4-triazol-3-yl}methyl)-5-(4-chlorophenyl)-4-[(2S)-3,3,3-trifluoro-2-hydroxypropyl]-2,4-dihydro-3H-1,2,4-triazol-3-one hydrochloride]"
11.4,0.97,11.7,"CC(N)c1nc(Cn2nc(-c3ccc(Cl)cc3)n(C[C@H](O)C(F)(F)F)c2=O)nn1-c1ccccc1Cl (single isomer, unassigned) [Example 62]"
4900,12.5,392.0,"CC(=O)NC(COC(C)(C)C)c1nc(Cn2nc(-c3ccc(Cl)cc3)n(C[C@H](O)C(F)(F)F)c2=O)nn1-c1ccccc1Cl (single isomer, unassigned) [Example 90]"
6,0.62,9.8,"O=C1NC(c2nc(Cn3nc(-c4ccc(Cl)cc4)n(C[C@H](O)C(F)(F)F)c3=O)nn2-c2ccccc2Cl)CO1 (mixture of isomers) [Example 98, 5-(4-Chlorophenyl)-2-({1-(2-chlorophenyl)-5-[2-oxo-1,3-oxazolidin-4-yl]-1H-1,2,4-triazol-3-yl}methyl)-4-[(2S)-3,3,3-trifluoro-2-hydroxypropyl]-2,4-dihydro-3H-1,2,4-triazol-3-one]"
26.5,1.45,18.3,"CN1C(=O)CCC1c1nc(Cn2nc(-c3ccc(Cl)cc3)n(C[C@H](O)C(F)(F)F)c2=O)nn1-c1ncccc1Cl (mixture of isomers) [Example 103, 5-(4-Chlorophenyl)-2-({1-(3-chloropyridin-2-yl)-5-[(2R)-1-methyl-5-oxopyrrolidin-2-yl]-1H-1,2,4-triazol-3-yl}methyl)-4-[(2S)-3,3,3-trifluoro-2-hydroxypropyl]-2,4-dihydro-3H-1,2,4-triazol-3-one]"
2150,94.5,22.8,"CC(N)c1nc(Cn2nc(-c3ccc(Cl)cc3)n(C[C@H](O)C(F)(F)F)c2=O)nn1-c1ncccn1 (mixture of isomers) [Example 128, 2-({5-[1-Aminoethyl]-1-(pyrimidin-2-yl)-1H-1,2,4-triazol-3-yl}methyl)-5-(4-chlorophenyl)-4-[(2S)-3,3,3-trifluoro-2-hydroxypropyl]-2,4-dihydro-3H-1,2,4-triazol-3-one hydrochloride]"
280,6.35,44.1,"CC(=O)NC(CO)c1nc(Cn2nc(-c3ccc(Cl)cc3)n(C[C@H](O)C(F)(F)F)c2=O)nn1-c1ncccc1OC(F)(F)F (single isomer, unassigned) [Example 122]"
410,12.5,32.8,"CC(=O)NC(CO)c1nc(Cn2nc(-c3ccc(Cl)cc3)n(C[C@H](O)C(F)(F)F)c2=O)nn1-c1ncccc1OC(F)(F)F (mixture of isomers) [Example 120, N-[1-{3-({3-(4-Chlorophenyl)-5-oxo-4-[(2S)-3,3,3-trifluoro-2-hydroxypropyl]-4,5-dihydro-1H-1,2,4-triazol-1-yl}methyl)-1-[3-(trifluoromethoxy)pyridin-2-yl]-1H-1,2,4-triazol-5-yl}-2-hydroxyethyl]acetamide]"
408,39,10.5,"CC(=O)NC(C)c1nc(Cn2nc(-c3ccc(Cl)cc3)n(C[C@H](O)C(F)(F)F)c2=O)nn1-c1ncccc1Cl (single isomer, unassigned) [Example 109]"
8.65,0.7,12.4,"CC(NS(C)(=O)=O)c1nc(Cn2nc(-c3ccc(Cl)cc3)n(C[C@H](O)C(F)(F)F)c2=O)nn1-c1ccccc1Cl (single isomer, unassigned) [Example 69]"
240,13.5,17.8,"CC(=O)NC(C)c1nc(Cn2nc(-c3ccc(Cl)cc3)n(C[C@H](O)C(F)(F)F)c2=O)nn1-c1ncccc1Cl (mixture of isomers) [Example 107, N-{1-[3-({3-(4-Chlorophenyl)-5-oxo-4-[(2S)-3,3,3-trifluoro-2-hydroxypropyl]-4,5-dihydro-1H-1,2,4-triazol-1-yl}methyl)-1-(3-chloropyridin-2-yl)-1H-1,2,4-triazol-5-yl]ethyl}acetamide]"
4.5,0.97,4.6,"CC(NS(C)(=O)=O)c1nc(Cn2nc(-c3ccc(Cl)cc3)n(C[C@H](O)C(F)(F)F)c2=O)nn1-c1ccccc1Cl (single isomer, unassigned) [Example 68]"
17.5,5.1,3.4,"CC(=O)NC(CO)c1nc(Cn2nc(-c3ccc(Cl)cc3)n(C[C@H](O)C(F)(F)F)c2=O)nn1-c1ccccc1Cl (single isomer, unassigned) [Example 92]"
3.11,1.78,1.8,"COc1ccccc1-n1nc(Cn2nc(-c3ccc(Cl)cc3)n(C[C@H](O)C(F)(F)F)c2=O)nc1COC(N)=O [Example 27, [3-({3-(4-Chlorophenyl)-5-oxo-4-[(2S)-3,3,3-trifluoro-2-hydroxypropyl]-4,5-dihydro-1H-1,2,4-triazol-1-yl}methyl)-1-(2-methoxyphenyl)-1H-1,2,4-triazol-5-yl]methyl Carbamate]"
13.4,1.46,9.2,"C[C@@H](OC(N)=O)c1nc(Cn2nc(-c3ccc(Cl)cc3)n(C[C@H](O)C(F)(F)F)c2=O)nn1-c1ccc(F)cc1Cl [Example 4, (1R)-1-[1-(2-Chloro-4-fluorophenyl)-3-({3-(4-chlorophenyl)-5-oxo-4-[(2S)-3,3,3-trifluoro-2-hydroxypropyl]-4,5-dihydro-1H-1,2,4-triazol-1-yl}methyl)-1H-1,2,4-triazol-5-yl]ethyl Carbamate]"
5.91,1.12,5.3,"COCCNC(=O)OCc1nc(Cn2nc(-c3ccc(Cl)cc3)n(C[C@H](O)C(F)(F)F)c2=O)nn1-c1ccccc1Cl [Example 48, [1-(2-Chlorophenyl)-3-({3-(4-chlorophenyl)-5-oxo-4-[(2S)-3,3,3-trifluoro-2-hydroxypropyl]-4,5-dihydro-1H-1,2,4-triazol-1-yl}methyl)-1H-1,2,4-triazol-5-yl]methyl (2-methoxyethyl)carbamate]"
13.8,0.7,19.7,"CN1C(=O)CCC1c1nc(Cn2nc(-c3ccc(Cl)cc3)n(C[C@H](O)C(F)(F)F)c2=O)nn1-c1ccccc1Cl (single isomer, unassigned) [Example 71]"
161,0.85,190.5,"C[C@@H](OC(N)=O)c1nc(Cn2nc(-c3ccc(Cl)cc3)n(C[C@H](O)C(F)(F)F)c2=O)nn1-c1ccccc1OC(F)(F)F [Example 8, (1R)-1-{3-({3-(4-Chlorophenyl)-5-oxo-4-[(2S)-3,3,3-trifluoro-2-hydroxypropyl]-4,5-dihydro-1H-1,2,4-triazol-1-yl}methyl)-1-[2-(trifluoromethoxy)phenyl]-1H-1,2,4-triazol-5-yl}ethyl Carbamate]"
69.4,6.03,11.5,"CC(=O)NC(C)c1nc(Cn2nc(-c3ccc(Cl)cc3)n(C[C@H](O)C(F)(F)F)c2=O)nn1-c1ncccc1Cl (single isomer, unassigned) [Example 108]"
7.03,0.81,8.7,"CN1C(=O)CCC1c1nc(Cn2nc(-c3ccc(Cl)cc3)n(C[C@H](O)C(F)(F)F)c2=O)nn1-c1ccccc1Cl (mixture of isomers) [Example 70, 5-(4-Chlorophenyl)-2-{[1-(2-chlorophenyl)-5-(1-methyl-5-oxopyrrolidin-2-yl)-1H-1,2,4-triazol-3-yl]methyl}-4-[(2S)-3,3,3-trifluoro-2-hydroxypropyl]-2,4-dihydro-3H-1,2,4-triazol-3-one]"
10.3,0.51,20.3,"C[C@@H](OC(N)=O)c1nc(Cn2nc(-c3ccc(Cl)cc3)n(C[C@H](OC(N)=O)C(F)(F)F)c2=O)nn1-c1ccccc1Cl [Example 32, (2S)-3-[1-({5-[(1R)-1-(Carbamoyloxy)ethyl]-1-(2-chlorophenyl)-1H-1,2,4-triazol-3-yl}methyl)-3-(4-chlorophenyl)-5-oxo-1,5-dihydro-4H-1,2,4-triazol-4-yl]-1,1,1-trifluoropropan-2-yl Carbamate]"
26.7,3.6,7.4,"C[C@H](OC(N)=O)c1nc(Cn2nc(-c3ccc(Cl)cc3)n(C[C@H](O)C(F)(F)F)c2=O)nn1-c1ccccc1OC(F)(F)F [Example 7, (1S)-1-{3-({3-(4-Chlorophenyl)-5-oxo-4-[(2S)-3,3,3-trifluoro-2-hydroxypropyl]-4,5-dihydro-1H-1,2,4-triazol-1-yl}methyl)-1-[2-(trifluoromethoxy)phenyl]-1H-1,2,4-triazol-5-yl}ethyl Carbamate]"

SMILES,IC50 (human V2 receptor) [nM],IC50 (human V1a receptor) [nM],ratio IC50 hV2/hV1a (human V1a receptor)
"CC(C)(C)OCC(NS(C)(=O)=O)c1nc(Cn2nc(-c3ccc(Cl)cc3)n(C[C@H](O)C(F)(F)F)c2=O)nn1-c1ccccc1Cl (mixture of isomers) [Example 82, N-{2-tert-Butoxy-1-[1-(2-chlorophenyl)-3-({3-(4-chlorophenyl)-5-oxo-4-[(2S)-3,3,3-trifluoro-2-hydroxypropyl]-4,5-dihydro-1H-1,2,4-triazol-1-yl}methyl)-1H-1,2,4-triazol-5-yl]ethyl}methanesulfonamide]",48,0.64,75.6
